From PMC8449414, “Rational design of ASCT2 inhibitors using an integrated experimental-computational approach” (Proceedings of the National Academy of Sciences of the …, 2021)
Several values for one entry are separate records, joined by “and”; a condition that tells them apart may be missing. Equal entries are not always repeated.

Legend:
rASCT2 = molecular target: T1, rASCT2 (Rattus norvegicus, UniProt D3ZJ25); assay: Electrophysiology: inhibition of leak anion current in transfected HEK293 cells; assay type: cell-based; details: HEK293 cells, 0 mV, 130 mM NaSCN internal, 140 mM NaCl external, No current = no inhibition of anion leak current up to highest concentration tested (§ 20-50, || 100-400, # 1500-2500 µM); for Ki: read-out: Binding affinity Ki (apparent Ki)
T1 construct: expressed in transfected cells; host or cells: HEK293 (ATCC CRL-11268), transient transfection
T1 sequence (D3ZJ25 1-555): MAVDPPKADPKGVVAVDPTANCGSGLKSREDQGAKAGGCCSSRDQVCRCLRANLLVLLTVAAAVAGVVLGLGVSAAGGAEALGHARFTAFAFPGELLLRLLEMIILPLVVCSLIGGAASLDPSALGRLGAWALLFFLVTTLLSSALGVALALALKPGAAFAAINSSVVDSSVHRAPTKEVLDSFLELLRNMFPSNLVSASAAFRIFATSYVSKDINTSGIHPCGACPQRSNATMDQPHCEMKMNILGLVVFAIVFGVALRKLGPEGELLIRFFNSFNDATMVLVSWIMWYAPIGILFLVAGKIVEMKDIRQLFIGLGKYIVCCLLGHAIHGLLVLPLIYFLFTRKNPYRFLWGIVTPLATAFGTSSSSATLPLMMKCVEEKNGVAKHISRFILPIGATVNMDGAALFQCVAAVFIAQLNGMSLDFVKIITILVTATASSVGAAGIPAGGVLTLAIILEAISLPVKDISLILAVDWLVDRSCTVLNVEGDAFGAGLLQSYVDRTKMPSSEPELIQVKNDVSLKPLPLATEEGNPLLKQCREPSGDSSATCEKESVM
Description: (§1) Cell culture and transfection
(§2) Human embryonic kidney 293 (HEK293, ATCC CRL -11268) cells were cultured in DMEM media supplemented with 10% (v/v) fetal bovine serum (FBS), 2 mM glutamine, 1% penicillin streptomycin solution, 1 mM sodium pyruvate and non -essential amino acids. Cells were maintained at 370C in a fully humidified atmosphere containing 5% CO2. rASCT2, hASCT2, hASCT1, EAAT1, EAAT2, EAAT3, EAAT5 and YFP complementary DNAs were each used to transiently transfect HEK293 using POLYPLUS Jet-prime transfection reagent. Cells were analyzed using electrophysiological techniques 24-40 hours after transfection.
(§3) Electrophysiological techniques
(§4) Electrophysiological experiments were performed as described previously 1,2. Stock solutions of inhibitor was prepared in dimethyl sulfoxide (DMSO) up to 100 mM.
(§5) Dilutions to working concentrations were made using external buffer. The highest

hASCT2 = molecular target: T2, hASCT2 (Homo sapiens, UniProt Q15758); assay: as above; assay type: cell-based; details: for activity (in words, structure activity relationship): ASCT2, species not given; for Binding affinity Ki (apparent Ki) / Ki: HEK293 cells, 0 mV, 130 mM NaSCN internal, 140 mM NaCl external, No current = no inhibition of anion leak current up to highest concentration tested (§ 20-50, || 100-400, # 1500-2500 µM); for Ki: read-out: Binding affinity Ki (apparent Ki); for selectivity for hASCT2 over rEAAT1: ratio of Ki, hASCT2 versus rEAAT1
T2 construct: expressed in transfected cells; host or cells: HEK293 (ATCC CRL-11268), transient transfection
T2 sequence (Q15758 1-541): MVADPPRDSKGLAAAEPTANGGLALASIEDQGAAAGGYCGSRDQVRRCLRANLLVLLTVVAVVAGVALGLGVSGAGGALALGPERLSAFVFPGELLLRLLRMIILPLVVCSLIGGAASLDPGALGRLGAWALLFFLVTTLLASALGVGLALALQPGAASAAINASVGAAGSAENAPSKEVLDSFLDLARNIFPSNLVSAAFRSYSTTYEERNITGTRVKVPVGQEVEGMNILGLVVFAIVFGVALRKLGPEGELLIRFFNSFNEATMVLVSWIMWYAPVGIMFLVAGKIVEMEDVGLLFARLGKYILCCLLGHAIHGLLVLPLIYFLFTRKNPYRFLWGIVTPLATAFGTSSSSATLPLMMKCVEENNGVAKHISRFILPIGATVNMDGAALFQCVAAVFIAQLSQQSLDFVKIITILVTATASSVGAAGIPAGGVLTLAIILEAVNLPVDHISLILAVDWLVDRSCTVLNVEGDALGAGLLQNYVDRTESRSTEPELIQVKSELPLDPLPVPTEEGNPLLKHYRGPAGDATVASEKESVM
Description: as §1, §2, §3, §4, §5

SMILES | Binding affinity Ki (apparent Ki) (rASCT2) | activity (in words, structure activity relationship) (hASCT2) | Binding affinity Ki (apparent Ki) (hASCT2) | Ki (rASCT2) | Ki (hASCT2) | selectivity for hASCT2 over rEAAT1 (hASCT2)
O=C(O[C@@H]1CN[C@H](C(=O)O)C1)c1ccccc1-c1ccccc1 [ERA-3] | No current | inactive | No current | – | – | –
O=C(O[C@@H]1CN[C@H](C(=O)O)C1)c1ccc(-c2ccc(F)cc2)cc1 [ERA-4] | – | – | – | 0.65 ± 0.04 µM | 0.74 ± 0.09 µM | –
O=C(O[C@@H]1CN[C@H](C(=O)O)C1)c1ccc(-c2ccc(C(F)(F)F)cc2)cc1 [ERA-5] | – | – | – | 0.27 ± 0.05 µM | 1.05 ± 0.21 µM | –
Cc1ccccc1-c1ccc(C(=O)O[C@@H]2CN[C@H](C(=O)O)C2)cc1 [ERA-6] | – | – | – | 0.97 ± 0.08 µM | 1.12 ± 0.11 µM | –
O=C(O[C@@H]1CN[C@H](C(=O)O)C1)c1ccc(C(O)c2ccccc2)cc1 (some centres unmarked) [ERA-9] | – | – | – | 18.8 ± 4.97 µM | 5.65 µM and 5.7 µM | sevenfold
O=C(Nc1ccc(C(=O)O[C@@H]2CN[C@H](C(=O)O)C2)cc1)c1ccc(C(F)(F)F)cc1 [ERA-11] | – | – | – | 3.37 ± 0.41 µM | 2.94 ± 0.93 µM | threefold
O=C(O[C@@H]1CN[C@H](C(=O)O)C1)c1ccc(Oc2ccccc2)cc1 [ERA-16] | – | – | – | 3.68 ± 0.73 µM | 4.17 ± 0.46 µM | –
N[C@@H](COC(=O)c1ccc(NC(=O)c2ccccc2)cc1)C(=O)O [ERA-21] | – | – | – | 4.33 ± 1.3 µM | 22.6 ± 3.66 µM | –
N[C@@H](COC(=O)c1ccccc1)C(=O)O [ERA-25] | – | – | – | 290 ± 16.5 µM | 186 ± 17.2 µM | –
N[C@@H](COC(=O)c1cccnc1)C(=O)O [ERA-28] | – | – | – | 266 ± 42.7 µM | 690 ± 54.2 µM | –
O=C(O[C@@H]1CN[C@H](C(=O)O)C1)C(c1ccccc1)c1ccccc1 [ERA-29] | No current | no activity | No current | – | – | –
O=C(O[C@@H]1CN[C@H](C(=O)O)C1)c1ccc(OCc2ccccc2)cc1 [ERA-31] | – | – | No current | 8.17 ± 1.05 µM | – | –
O=C(O[C@H]1CN[C@H](C(=O)O)C1)c1ccc(C(=O)c2ccccc2)cc1 [ERA-35] | – | – | – | 121 ± 29.9 µM | > 500 µM | –
O=C(O[C@@H]1CN[C@H](C(=O)O)C1)c1ccc(-c2ccccc2)cc1 [Lc-BPE, L-cis hydroxyproline biphenyl ester] | – | – | – | 0.74 ± 0.11 µM | 0.86 ± 0.11 µM | –
